{
  "source": "patent US20240300900A1",
  "about": "“HYDROPHILIC AZADIBENZOCYCLOOCTYNE DERIVATIVES AND METAL-FREE CLICK REACTIONS WITH THESE HYDROPHILIC AZADIBENZOCYCLOOCTYNE DERIVATIVES” (Roche Diagnostics Operations, Inc., priority 2021, published 2024)",
  "key": {"[1]": {"test": "Solubility experiments: successive mixing with water, visual inspection", "type": "physicochemical", "details": "sonicated 10 s", "text": "If solid compound was still visible, this was considered as not dissolved. If no solid compound was visible, this was considered as dissolved."}, "[2]": {"test": "Hydrophobicity indicated by reverse phase HPLC (YMC-Triart C18)", "type": "physicochemical", "details": "YMC-Triart C18, 0-100% MeCN in H2O, 0.1% TFA in 25 min; later retention = more hydrophobic", "text": "The other way round, an earlier retention corresponded to higher hydrophilie."}, "[3]": {"details": "theoretical concentration 0.6 mM"}, "[4]": {"details": "theoretical concentration 6.0 mM"}, "[5]": {"details": "theoretical concentration 12.4 mM"}, "[6]": {"details": "theoretical concentration 16.5 mM"}, "[7]": {"details": "theoretical concentration 515 mM"}},
  "data": [
    {"smiles": "O=C(CCC(=O)N1Cc2ccccc2C#Cc2ccccc21)ON1C(=O)CCC1=O", "note": "[Compound 32]", "values": [
      {"measurement": "dissolved in water (visual inspection)", "setting": "[1]; [3]", "value": "no"},
      {"measurement": "dissolved in water (visual inspection)", "setting": "[1]; [4]", "value": "no"},
      {"measurement": "dissolved in water (visual inspection)", "setting": "[1]; [5]", "value": "no"},
      {"measurement": "dissolved in water (visual inspection)", "setting": "[1]; [6]", "value": "no"},
      {"measurement": "dissolved in water (visual inspection)", "setting": "[1]; [7]", "value": "no"}
    ]},
    {"smiles": "O=C(O)CCCCC(=O)N1Cc2ccccc2C#Cc2ccccc21", "note": "[Compound 31]", "values": [
      {"measurement": "dissolved in water (visual inspection)", "setting": "[1]; [3]", "value": "no"},
      {"measurement": "dissolved in water (visual inspection)", "setting": "[1]; [4]", "value": "no"},
      {"measurement": "dissolved in water (visual inspection)", "setting": "[1]; [5]", "value": "no"},
      {"measurement": "dissolved in water (visual inspection)", "setting": "[1]; [6]", "value": "no"},
      {"measurement": "dissolved in water (visual inspection)", "setting": "[1]; [7]", "value": "no"},
      {"measurement": "Retention Time", "setting": "[2]", "value": 15.18, "unit": "min"}
    ]},
    {"smiles": "O=C(CCCC(=O)N1Cc2cc(OC[C@@H](O)CO)ccc2C#Cc2ccc(OC[C@@H](O)CO)cc21)NCCCC(=O)ON1C(=O)CCC1=O", "note": "[Compound 8]", "values": [
      {"measurement": "dissolved in water (visual inspection)", "setting": "[1]; [3]", "value": "yes"},
      {"measurement": "dissolved in water (visual inspection)", "setting": "[1]; [4]", "value": "yes"},
      {"measurement": "dissolved in water (visual inspection)", "setting": "[1]; [5]", "value": "yes"},
      {"measurement": "dissolved in water (visual inspection)", "setting": "[1]; [6]", "value": "no"},
      {"measurement": "dissolved in water (visual inspection)", "setting": "[1]; [7]", "value": "no"}
    ]},
    {"smiles": "O=C(O)CCCNC(=O)CCCC(=O)N1Cc2cc(OC[C@@H](O)CO)ccc2C#Cc2ccc(OC[C@@H](O)CO)cc21", "note": "[Compound 7]", "values": [
      {"measurement": "Retention Time", "setting": "[2]", "value": 11.58, "unit": "min"}
    ]}
  ]
}
